Assays:
CYP 2C9 = target: T1, CYP 2C9 (Homo sapiens, UniProt P11712); experiment: CYP inhibition in human liver microsome; format: in vitro ADME; settings: human liver microsomes, substrate diclofenac (5 μM); compounds diluted 1:3 starting at 50 μM; read-out: IC50 in CYP isozyme 2C9
T1 construct: from tissue; host or cells: human liver microsomes
Description: (§1) Test compounds were evaluated for CYP inhibition using human liver microsomes (HLM). Test compounds were 1:3 serially diluted starting at 50 μM to generate 7 different concentrations. After incubation of diluted test compounds with HLM, a substrate cocktail composed of phenacetin (10 μM), amodiaquine (2 μM), diclofenac (5 μM), s-mephenytoin (30 μM), dextromethorphan (5 μM), and midazolam (2 μM) was added to check the remaining CYP activity for CYP 1A2, 2C8, 2C9, 2C19, 2D6 and 3A4. The CYP activity was measured by detecting the peak area of individual metabolites of know CYP substrates using LC/MS/MS. A percentage of inhibition of CYP was calculated at each final concentration of test compound, through which an IC50 was fitted to represent the inhibition potential.

CYP 2D6 = target: T2, CYP 2D6 (Homo sapiens, UniProt P10635); experiment: CYP inhibition in human liver microsome; format: in vitro ADME; settings: human liver microsomes, substrate dextromethorphan (5 μM); compounds diluted 1:3 starting at 50 μM; read-out: IC50 in CYP isozyme 2D6
T2 construct: from tissue; host or cells: human liver microsomes
T2 sequence (P10635 whole entry): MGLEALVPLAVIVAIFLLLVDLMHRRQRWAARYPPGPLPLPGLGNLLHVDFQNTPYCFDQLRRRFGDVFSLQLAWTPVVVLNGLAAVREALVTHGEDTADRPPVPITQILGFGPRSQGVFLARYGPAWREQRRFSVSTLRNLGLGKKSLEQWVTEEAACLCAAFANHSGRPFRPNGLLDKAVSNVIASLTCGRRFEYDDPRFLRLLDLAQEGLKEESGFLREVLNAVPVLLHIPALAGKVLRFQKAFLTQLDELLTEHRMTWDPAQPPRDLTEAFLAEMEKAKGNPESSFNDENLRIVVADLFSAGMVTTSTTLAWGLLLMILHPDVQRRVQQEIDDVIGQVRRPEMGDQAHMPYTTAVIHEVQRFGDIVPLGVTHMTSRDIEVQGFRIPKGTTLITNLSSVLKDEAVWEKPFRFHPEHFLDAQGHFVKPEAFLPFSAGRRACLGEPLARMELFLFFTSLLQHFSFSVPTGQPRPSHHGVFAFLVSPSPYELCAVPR
Description: as §1

[1] = Pharmacokinetics in cynomolgus monkeys; format: in vivo; settings: male, cynomolgus monkey, plasma, po, P.O. (1 mg/kg)
Description: The pharmacokinetics and pharmacodynamics of test compounds after a single oral dose were investigated in SD rats, Beagle dog and Cynomolgus monkey. SD Rats (200-250 g) were purchased from Beijing Vital River Laboratory Animal Technology Co., Ltd. Male Beagle Dog, 6-9 kg, were purchased from Beijing Mashall. Male Cynomolgus monkeys, 3-5 kg, were purchased from Suzhou Xishan Zhongke Drugs Research and Development Co., Ltd. Following arrival, the animals were acclimated for 7 days in individual cages maintained at ambient temperature, 34 to 68% relative humidity, and 12-h light/dark cycles. Just prior to dose administration the rats were fasted overnight with free access to water. Animals were given 10 mL/kg of formulated compound in 0.5% methylcellulose (MC) by oral gavage, and the animals were fed four hours after dosing. The animals were manually restrained at the designated time points (pre-dose, 0.5, 1, 3, 6, 9, 12, and 24 h post-dose) to collect blood. Approximately 120 μL of blood was collected via orbital sinus into K2EDTA tubes. The blood samples were centrifuged at 5000 rpm for 10 min at 4° C. to obtain plasma samples.
To determine the compound concentration in the plasma samples, a 10× calibration standard of compound were prepared by serial dilution in DMSO: 20000, 10000, 5000, 2000, 1000, 500, 200, 100, 50, 20, and 10 ng/mL. 3 μL of calibration standard solution was added into 27.0 μL of blank plasma in 1.5-mL microcentrifuge tubes to generate 1× calibration standards. The 30.0 μL of standards or study plasma was mixed with 200 μL of acetonitrile (containing 5 ng/mL verapamil for internal control) in a 1.5-mL microcentrifuge tube. After vertexing for 1 minute and centrifuging at 10000 rpm for 10 min, 180 μL of supernatant was transferred into a 96-well plate and the compound concentration in the plasma was quantitated using LC/MS/MS together with standards. Briefly, 1 μL of the solutions were injected for LC-MS/MS analysis using an Agilent Zorbax C18 column (50×2.1 mm, 3.5 μm) with mobile phase A [5 mM NH4Ac (0.1% FA)] and phase B [Methanol (0.1% FA)]. Mass spectrometer parameters optimization for compound was performed by infusing standard diluted at 1 μg/mL in water/methanol (1/1, v/v) directly in the ionization source at a flow of 10 μL/min. Quantitative data were acquired in multiple reaction monitoring (MRM) positive APCI mode.

T1 sequence (P11712 whole entry): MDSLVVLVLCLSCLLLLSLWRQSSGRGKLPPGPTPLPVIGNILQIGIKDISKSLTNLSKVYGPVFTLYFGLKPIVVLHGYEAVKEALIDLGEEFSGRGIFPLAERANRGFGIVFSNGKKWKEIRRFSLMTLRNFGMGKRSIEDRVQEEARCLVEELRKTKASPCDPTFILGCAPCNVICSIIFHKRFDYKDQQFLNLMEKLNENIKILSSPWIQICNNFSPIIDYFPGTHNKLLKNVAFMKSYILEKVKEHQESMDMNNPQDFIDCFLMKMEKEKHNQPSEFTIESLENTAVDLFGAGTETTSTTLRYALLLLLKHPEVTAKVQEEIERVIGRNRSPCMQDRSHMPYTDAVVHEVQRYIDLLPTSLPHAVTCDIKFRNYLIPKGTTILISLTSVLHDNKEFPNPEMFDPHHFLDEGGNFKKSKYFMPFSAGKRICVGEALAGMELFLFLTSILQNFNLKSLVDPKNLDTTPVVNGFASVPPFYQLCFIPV

| IC50 (CYP 2C9) [µM] | IC50 (CYP 2D6) [µM] | AUC [1] [ng·h/mL] | Cmax [1] [ng/mL] | bioavailability [1] [%] | half-life [1] [h] | SMILES |
| --- | --- | --- | --- | --- | --- | --- |
| 15.9 | > 50 | 153 ± 10 | 28 ± 3 | 2.9 ± 0.19 | 2.63 ± 0.85 | CCn1nc2ncc(N3CC4(CN(C(=O)C5CCOCC5)C4)C3)cc2c1N(C)c1nc(-c2ccc(F)cc2)c(C#N)s1 [Compound 118, 2-((2-ethyl-5-(6-(tetrahydro-2H-pyran-4-carbonyl)-2,6-diazaspiro[3.3]heptan-2-yl)-2H-pyrazolo[3,4-b]pyridin-3-yl)(methyl)amino)-4-(4-fluorophenyl)thiazole-5-carbonitrile] |
| 17.3 | > 50 | 1380 ± 904 | 239 ± 119 | 35.6 ± 22 | 2.49 ± 0.54 | CCc1nn2cc(F)c(N3CCN(CC(=O)N4CC(O)C4)CC3)cc2c1N(C)c1nc(-c2ccc(F)cc2)c(C#N)s1 [Example 101, 2-[[2-ethyl-6-fluoro-5-[4-[2-(3-hydroxyazetidin-1-yl)-2-oxo-ethyl]piperazin-1-yl]pyrazolo[1,5-a]pyridin-3-yl]-methyl-amino]-4-(4-fluorophenyl)thiazole-5-carbonitrile] |
| 5.69 | > 50 |  |  |  |  | CCc1nn2cc(F)c(N3CC4(CN(C(=O)[C@H]5CCOC5)C4)C3)cc2c1N(C)c1nc(-c2ccc(F)cc2)c(C#N)s1 [Example 102, 2-[[2-ethyl-6-fluoro-5-[2-[(3S)-tetrahydrofuran-3-carbonyl]-2,6-diazaspiro[3.3]heptan-6-yl]pyrazolo[1,5-a]pyridin-3-yl]-methyl-amino]-4-(4-fluorophenyl)thiazole-5-carbonitrile] |
| 16.7 | > 50 | 244 ± 118 | 72.6 ± 38 | 4.51 ± 2.1 | 1.82 ± 0.63 | CCc1nc2c(C)cc(N3CCN(CC(=O)N4CC(O)C4)CC3)cn2c1N(C)c1nc(-c2ccc(F)cc2)c(C#N)s1 [GLPG1690] |

From patent publication US10711000B2 (Fronthera U.S. Pharmaceuticals LLC, priority 2018, dated 2020)
